The values that follow come from US20250082752A1, “COMPOUNDS, TARGETS, AND METHODS FOR MODULATING LYTIC GRANULE CONVERGENCE IN CYTOTOXIC CELLS TO PROMOTE BYSTANDER KILLING IN CELLULAR THERAPIES” (THE TRUSTEES OF COLUMBIA UNIVERSITY IN THE CITY OF NEW YORK, priority 2022, published 2025).

The structures appear in SMILES notation.

Common to all, as to assay type: cell-based
Experiment [1] relates to YTS cells. The experiment can be described thus: Number of MTOC (alpha-tubulin hyper densities) in YTS cells treated with PLK4 inhibitors. To be noted: 5 days, Centrinone 5 nM or CFI400495 50 nM. As to the method: (§1) Centrinone and CFI400495 are high affinity and selective PLK4 inhibitors that induce depletion of the centrosome and cell cycle arrest. YTS cells were treated for 5 days with Centrinone 5 nM or CFI400495 50 nM. […] For this experiment, 5×10^5 cells/ml YTS cells were incubated during 5 days Centrinone 5 nM or CFI400495 50 nM, every 24 hours the media were replaced with fresh media containing similar amounts of the drug. On day 5, cells were assessed by microscopy for gamma-tubulin or alpha-tubulin.

The test system of experiment [2] is YTS cells. Briefly: CD107a degranulation of treated YTS cells after conjugation with 721.221 target cells. To be noted: 5 days, Centrinone 5 nM or CFI400495 50 nM. As for the experimental part: CD107a (also known as LAMP-1) is the standard to measure the process of degranulation. The more CD107a is expressed on the surface of the cell after stimulation, the more granules have been released. This is limited to the immunological synapse, in part secondary to the convergence process. CD107a upregulation is measured via flow cytometry after PMA/lonomycin activation and can be measured following target cell conjugation. […] The latter requires synapse formation and engagement of receptors for downstream activation signaling. Differences in results between these two approaches (target cell conjugation versus PMA/lonomycin) map the candidate's impact to early (synapse formation and signaling) or late (mechanics of) degranulation.
as §1

Experiment [3] has as its system YTS cells. The experiment can be described thus: Confocal microscopy of granule dispersion in YTS cells after Centrinone or CFI400495. To be noted: YTS cells after treatment with Centrinone or CFI400495. As to the method:
as §1

Regarding `COc1ccc2c(c1)[C@]1(C[C@H]1c1ccc3c(/C=C/c4ccc(CN5C[C@@H](C)O[C@@H](C)C5)cc4)n[nH]c3c1)C(=O)N2.O=C(O)/C=C/C(=O)O` [CFI400495, Spiro[cyclopropane-1,3′-[3H]indol]-2′(1′H)-one, 2-[3-[(E)-2-[4-[[(2R,6S)-2,6-dimethyl-4-morpholinyl]methyl]phenyl]ethenyl]-1H-indazol-6-yl]-5′-methoxy-, (1R,2S)-, (2E)-2-butenedioate (1:1)], in experiment [1], the “number of MTOC (alpha Tubulin hyper densities)” value is “increase number of mTOC”. The “degranulation (CD107a expression)” value in experiment [2] is “increases degranulation”. In addition, the “granule dispersion (confocal microscopy images)” value in experiment [3] is listed as “more disperse granules”.
As to `COc1c(Nc2cc(C)[nH]n2)nc(Sc2ccc(S(=O)(=O)Cc3cccc([N+](=O)[O-])c3F)cc2F)nc1N1CCOCC1` [Centrinone, 2-[[2-Fluoro-4-[[(2-fluoro-3-nitrophenyl)methyl]sulfonyl]phenyl]thio]-5-methoxy-N-(5-methyl-1H-pyrazol-3-yl)-6-(4-morpholinyl)-4-pyrimidinamine], the “number of MTOC (alpha Tubulin hyper densities)” value in experiment [1] is “increase number of mTOC”. In addition, the “degranulation (CD107a expression)” value in experiment [2] was “increases degranulation”. Also, in experiment [3], the “granule dispersion (confocal microscopy images)” value is recorded as “more disperse granules”.
